Experimental findings from patent publication US8492405B2, “Glucokinase-activating fused heterocyclic compounds and methods of treating diabetes and obesity” (Takeda Pharmaceutical Company Limited, priority 2006, dated 2013) are described below.

Each structure is given as a SMILES string.

Series [1] concerns the target T1, GST-hLGK1 (human liver type GK) (Homo sapiens, UniProt P35557).
T1 construct: made in house; host or cells: Escherichia coli BL21
T1 sequence (P35557 1-464 isoform P35557-3): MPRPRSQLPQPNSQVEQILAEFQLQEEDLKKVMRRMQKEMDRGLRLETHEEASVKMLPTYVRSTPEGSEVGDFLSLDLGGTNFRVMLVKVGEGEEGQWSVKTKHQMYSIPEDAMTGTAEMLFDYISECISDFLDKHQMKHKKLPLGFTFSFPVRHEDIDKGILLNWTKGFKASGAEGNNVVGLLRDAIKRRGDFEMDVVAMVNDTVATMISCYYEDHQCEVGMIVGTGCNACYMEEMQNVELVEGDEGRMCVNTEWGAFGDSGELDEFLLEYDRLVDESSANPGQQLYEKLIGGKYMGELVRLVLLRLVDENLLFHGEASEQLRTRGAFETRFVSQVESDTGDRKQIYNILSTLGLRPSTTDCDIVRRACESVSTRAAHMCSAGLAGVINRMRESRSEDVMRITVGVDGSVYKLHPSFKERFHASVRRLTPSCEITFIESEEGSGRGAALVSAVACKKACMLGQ
The series is described as follows: Determination of GK activity value (Mant-ATP/Mant-ADP capillary electrophoresis). The settings on record: GK activation; GST-hLGK1, D-glucose, 37° C. for 60 min. It is filed as biochemical. As for the experimental part:
A solution (5 μL) of test compound in 50% dimethyl sulfoxide was added to each well of 384 well black plate (Nalge Nunc International K.K.). Then, a solution (35 μL) obtained by diluting GST-hLGK1 obtained in Reference Example 2A with measurement buffer (containing 50 mM HEPES (pH 7.4), 200 mM KCl, 5 mM MgCl2, 2.5 mM DTT and 50 μM 2′-(or -3′)—O—(N-methylanthraniloyl) adenosine 5′-triphosphate (Mant-ATP) (Jena Bioscience GmbH)) to 6 μg/mL was added to each well.
Each well was stood at 37° C. for 10 min, and 25 mM D-glucose solution (10 μL) was added to start the reaction.
Each well after the reaction was stood at 37° C. for 60 min, and the reaction was quenched by adding 25 μL of a quenching solution (containing 200 mM HEPES (pH 7.4), 20 mM MgCl2, 200 mM EDTA, 0.03% Triton-X 100, 0.3% Coating 3 reagent (Caliper Life Sciences, Inc.)).
2′-(or -3′)-O—(N-methylanthraniloyl)adenosine 5′-triphosphate (Mant-ATP, substrate) and Mant-ADP (reaction resultant product) were separated from each well after the reaction by a microchip type capillary electrophoresis apparatus 250 HTS (Caliper Life Sciences, Inc.). The reaction rate [(reaction resultant product peak height)/(reaction resultant product peak height+substrate peak height)×100(%)] was calculated from the ratio of the substrate peak height and reaction resultant product peak height obtained by fluorescence detection (excitation wavelength 355 nm, measurement wavelength 460 nm) and used as the index of GK activity.
As a control group, the reaction rate was calculated in the same manner as above except that “solution in 50% dimethyl sulfoxide (free of a test compound)” was used instead of “solution of test compound in 50% dimethyl sulfoxide”.
Using the percentage obtained by subtracting the reaction rate of the control group from the reaction rate of the well added with the test compound (test compound addition group) as a GK activation value of the test compound, a concentration dependency curve of the test compound was drawn, and the concentration of the test compound at the middle point between the maximum activity value of the test compound addition group and the activity value of the control group was taken as an EC50 value.

The EC50 is the midpoint of the concentration-response curve. By melting point is commonly meant the temperature of the solid-liquid transition. For the compound `CCOC(=O)c1cc2nc(C)n(Cc3ccccc3)c2[nH]1` [Example 1, ethyl 3-benzyl-2-methyl-3,4-dihydropyrrolo[2,3-d]imidazole-5-carboxylate], the melting point stood at 193 °C. In series [1], this compound displayed an EC50 of 3600 nM.

In turn, `CCOC(=O)c1cc2sc(C)c(N(C)C(=O)OCc3ccccc3)c2[nH]1` [Example 2, ethyl 3-{[(benzyloxy)carbonyl](methyl)amino}-2-methyl-4H-thieno[3,2-b]pyrrole-5-carboxylate] displayed a melting point of 122 °C.

For the compound `CCOC(=O)c1cc2sc(C)c(N(C)S(=O)(=O)c3cccs3)c2[nH]1` [Example 3, ethyl 2-methyl-3-[methyl(2-thienylsulfonyl)amino]-4H-thieno[3,2-b]pyrrole-5-carboxylate], the melting point turned out to be 161 °C.

Consider `Cc1sc2cc(C3=NCCS3)[nH]c2c1N(C)S(=O)(=O)c1cccs1` [Example 5, N-[5-(4,5-dihydro-1,3-thiazol-2-yl)-2-methyl-4H-thieno[3,2-b]pyrrol-3-yl]-N-methylthiophene-2-sulfonamide], for which the melting point came out at 140 °C. Further, in series [1], the response was half-maximal at 74 nM (EC50).

Regarding `Cc1sc2cc(C(=O)NCC3(SCc4ccccc4)CCNCC3)[nH]c2c1N(C)S(=O)(=O)c1cccs1` [Example 6, N-{[4-(benzylthio)piperidin-4-yl]methyl}-2-methyl-3-[methyl(2-thienylsulfonyl)amino]-4H-thieno[3,2-b]pyrrole-5-carboxamide], the melting point is 222 °C.

Turning to `Cc1sc2cc(C3=NCC4(CCNCC4)S3)[nH]c2c1N(C)S(=O)(=O)c1cccs1` [Example 7, N-methyl-N-[2-methyl-5-(1-thia-3,8-diazaspiro[4.5]deca-2-en-2-yl)-4H-thieno[3,2-b]pyrrol-3-yl]thiophene-2-sulfonamide], the melting point amounted to 196 °C.

In the case of `CC(=O)N1CCC2(CC1)CN=C(c1cc3sc(C)c(N(C)S(=O)(=O)c4cccs4)c3[nH]1)S2` [Example 8, N-[5-(8-acetyl-1-thia-3,8-diazaspiro[4.5]deca-2-en-2-yl)-2-methyl-4H-thieno[3,2-b]pyrrol-3-yl]-N-methylthiophene-2-sulfonamide], the melting point came out at 231 °C. This compound showed a 50% effective concentration (EC50) in series [1] of 160 nM.

In the case of `CCOC(=O)C(=O)NNC(=O)c1cc2sc(C)c(N(C)S(=O)(=O)c3cccs3)c2[nH]1` [Example 9, ethyl [2-({2-methyl-3-[methyl(2-thienylsulfonyl)amino]-4H-thieno[3,2-b]pyrrol-5-yl}carbonyl)hydrazino](oxo)acetate], the melting point came out at 135 °C.

Compound `CCOC(=O)c1nnc(-c2cc3sc(C)c(N(C)S(=O)(=O)c4cccs4)c3[nH]2)s1` [Example 10, ethyl 5-{2-methyl-3-[methyl(2-thienylsulfonyl)amino]-4H-thieno[3,2-b]pyrrol-5-yl}-1,3,4-thiadiazole-2-carboxylate] registered a melting point of 209 °C.

For the compound `COC(OC)C1CN=C(c2cc3sc(C)c(N(C)S(=O)(=O)c4cccs4)c3[nH]2)S1` (centres unmarked) [Example 12, N-{5-[5-(dimethoxymethyl)-4,5-dihydro-1,3-thiazol-2-yl]-2-methyl-4H-thieno[3,2-b]pyrrol-3-yl}-N-methylthiophene-2-sulfonamide], the melting point is 185 °C.

Compound `CON(C)C(=O)c1cc2sc(C)c(N(C)S(=O)(=O)c3cccs3)c2[nH]1` [Example 13, N-methoxy-N,2-dimethyl-3-[methyl(2-thienylsulfonyl)amino]-4H-thieno[3,2-b]pyrrole-5-carboxamide] returned a melting point of 187 °C.

In turn, `CC(=O)c1cc2sc(C)c(N(C)S(=O)(=O)c3cccs3)c2[nH]1` [Example 14, N-(5-acetyl-2-methyl-4H-thieno[3,2-b]pyrrol-3-yl)-N-methylthiophene-2-sulfonamide] showed a melting point of 220 °C.

`CCOC(=O)c1cc2c([nH]1)c(N(C)S(=O)(=O)c1cccs1)cn2CC` [Example 15, ethyl 4-ethyl-6-[methyl(2-thienylsulfonyl)amino]-1,4-dihydropyrrolo[3,2-b]pyrrole-2-carboxylate]: the melting point came out at 122 °C.

In turn, `CCn1cc(N(C)S(=O)(=O)c2cccs2)c2[nH]c(C3=NCCS3)cc21` [Example 17, N-[5-(4,5-dihydro-1,3-thiazol-2-yl)-1-ethyl-1,4-dihydropyrrolo[3,2-b]pyrrol-3-yl]-N-methylthiophene-2-sulfonamide] gave a melting point of 163 °C. In addition, the midpoint of the response in series [1], the EC50, lay at 350 nM.

With `CCOC(=O)c1cc2c([nH]1)c(N(C)S(=O)(=O)c1cccs1)cn2Cc1ccccc1` [Example 18, ethyl 4-benzyl-6-[methyl(2-thienylsulfonyl)amino]-1,4-dihydropyrrolo[3,2-b]pyrrole-2-carboxylate], the melting point worked out at 120 °C. The EC50 in series [1] was determined as 430 nM.
